Values of other authors as cited in PubChem BioAssay AID1259410 (Chemical Carcinogenesis Research Information System (CCRIS), 2018).

System: rodent tumor promotion studies, tumor incidence
Assay: CCRIS tumor promotion studies

## CCC1(CC)C(=O)N=C(O)NC1=O
Carcinogen: CISPLATIN, 15663-27-1, Doses [Carcinogen]: 5 MG/KG BW GIVEN INTRAPERITONEALLY TO FEMALE RATS ON DAY 18 OF GESTATION, Doses [Promoter]: 0, 500 PPM IN DRINKING WATER BEGINNING AT 4 WK OF AGE AND CONTINUING FOR 75 WK (STUDY DURATION: 79 WK), Route [Carcinogen]: TRANSPLACENTAL, Route [Promoter]: ORAL, Species: RAT, Strain/Sex: F344/MALE
  outcome: kidney: renal cell adenoma
Carcinogen: METHYL(ACETOXYMETHYL)NITROSAMINE, 56856-83-8, Doses [Carcinogen]: 0.05 MMOL/KG IN 5 ML STERILE PHOSPHATE BUFFER ONCE, Doses [Promoter]: 0, 500 PPM IN DRINKING WATER BEGINNING 2 WK POST CARCINOGEN DOSE AND CONTINUING FOR 78 WK (STUDY DURATION: 80 WK), Route [Carcinogen]: INTRAPERITONEAL, Route [Promoter]: ORAL, Species: RAT, Strain/Sex: F344/MALE
  outcome: kidney: tumor
Carcinogen: N-BUTYL-N-(4-HYDROXYBUTYL)NITROSAMINE, 3817-11-6, Doses [Carcinogen]: 0.5% IN DRINKING WATER FOR 4 WK, Doses [Promoter]: 1000 PPM IN DIET BEGINNING 1 D POST CARCINOGEN DOSE FOR DURATION OF STUDY (STUDY DURATION: 36-52 WK), Route [Carcinogen]: ORAL, Route [Promoter]: ORAL, Species: RAT, Strain/Sex: F344/MALE
  outcome: urinary bladder: papilloma or carcinoma
Carcinogen: N-NITROSODIETHYLAMINE, 55-18-5, Doses [Carcinogen]: 75 MG ONCE, Doses [Promoter]: 0, 500 PPM IN DRINKING WATER BEGINNING 2 WK POST CARCINOGEN DOSE AND CONTINUING FOR DURATION OF STUDY (STUDY DURATION: 5, Route [Carcinogen]: INTRAPERITONEAL, Route [Promoter]: ORAL, Species: RAT, Strain/Sex: F344/MALE
  outcome: liver: hepatocellular adenoma
Carcinogen: N-NITROSODIETHYLAMINE, 55-18-5, Doses [Carcinogen]: 75 MG ONCE, Doses [Promoter]: 0, 500 PPM IN DRINKING WATER BEGINNING 2 WK POST CARCINOGEN DOSE AND CONTINUING FOR DURATION OF STUDY (STUDY DURATION: 7, Route [Carcinogen]: INTRAPERITONEAL, Route [Promoter]: ORAL, Species: RAT, Strain/Sex: F344/MALE
  outcome: liver: hepatocellular carcinoma; kidney: renal tubular adenoma or adenocarcinoma
Carcinogen: N-[4-(5-NITRO-2-FURYL)-2-THIAZOLYL]FORMAMIDE, 24554-26-5, Doses [Carcinogen]: 0.2% IN DIET FOR 6 WK, Doses [Promoter]: 1000 PPM IN DIET BEGINNING 2 WK POST LAST CARCINOGEN DOSE AND CONTINUING FOR DURATION OF STUDY (STUDY DURATION: 52-68 WK, Route [Carcinogen]: ORAL, Route [Promoter]: ORAL, Species: RAT, Strain/Sex: F344/MALE
  outcome: urinary bladder: papilloma or carcinoma
Carcinogen: NONE (PROMOTION OF SPONTANEOUS TUMORS), Doses [Promoter]: 500 PPM IN DIET FOR 4.5 MONTHS (STUDY DURATION: 4.5 MONTHS), Route [Promoter]: ORAL, Species: RAT, Strain/Sex: EKER (TSC2 MUTANT)/MALE
  outcome: kidney: adenoma or carcinoma
Doses [Carcinogen]: 45 UMOL/KG BW GIVEN INTRAPERITONEALLY TO MOTHERS ON DAYS 16 AND 18 OF GESTATION, Doses [Promoter]: 0, 0.05% IN DRINKING WATER BEGINNING AT 4 WK OF AGE AND CONTINUING FOR 81 WK (STUDY DURATION: 85 WK), Route [Carcinogen]: TRANSPLACENTAL, Route [Promoter]: ORAL, Species: RAT, Strain/Sex: F344/MALE
  outcome: kidney: tumors
Doses [Carcinogen]: 90 UMOL/KG BW GIVEN INTRAPERITONEALLY TO MOTHERS ON DAY 17 OF GESTATION, Doses [Promoter]: 0, 0.05% IN DRINKING WATER BEGINNING AT 4 WK OF AGE AND CONTINUING FOR 81 WK (STUDY DURATION: 85 WK), Route [Carcinogen]: TRANSPLACENTAL, Route [Promoter]: ORAL, Species: RAT, Strain/Sex: F344/MALE
  outcome: kidney: tumors
Doses [Carcinogen]: 90 UMOL/KG ONCE IN DISTILLED WATER, Doses [Promoter]: 0, 500 PPM IN DRINKING WATER BEGINNING 2 WK POST CARCINOGEN DOSE (STUDY DURATION: 96 WK), Route [Carcinogen]: INTRAPERITONEAL, Route [Promoter]: ORAL, Species: RAT, Strain/Sex: F344/MALE
  outcome: kidney: adenoma or carcinoma

## CSCC[C@H](NC(=O)[C@H](CC(C)C)NC(=O)CNC(=O)[C@H](Cc1ccccc1)NC(=O)[C@H](Cc1ccccc1)NC(=O)[C@H](CCC(N)=O)NC(=O)[C@H](CCC(N)=O)NC(=O)[C@@H]1CCCN1C(=O)[C@H](CCCCN)NC(=O)[C@@H]1CCCN1C(=O)[C@@H](N)CCCN=C(N)N)C(N)=O
Carcinogen: N-METHYL-N'-NITRO-N-NITROSOGUANIDINE, 70-25-7, Doses [Carcinogen]: 50 UG/ML IN DRINKING WATER FOR 25 WK, Doses [Promoter]: 0, 12 UG/KG BW 1/2 D FOR 26 WK BEGINNING POST CARCINOGEN TREATMENT (STUDY DURATION: 52 WK), Route [Carcinogen]: ORAL, Route [Promoter]: SUBCUTANEOUS, Species: RAT, Strain/Sex: WISTAR/MALE, FEMALE
  outcome: stomach: tumor

## C[C@]12CCC(=O)C=C1CC[C@@H]1[C@@H]2CC[C@@]2(C)[C@H]1CC[C@]2(C)O
Carcinogen: N-BIS(2-HYDROXYPROPYL)NITROSAMINE, 53609-64-6, Doses [Carcinogen]: 210 MG/100 G BW 1/WK FOR 2 WK, Doses [Promoter]: 0, 300 PPM IN DIET OF CASTRATED RATS BEGINNING POST CARCINOGEN TREATMENT AND CONTINUING FOR 28 WK (STUDY DURATION: 30 WK, Route [Carcinogen]: INTRAPERITONEAL, Route [Promoter]: ORAL, Species: RAT, Strain/Sex: WISTAR/MALE
  outcome: thyroid gland: adenoma or carcinoma

## CCCCCCCCCCCCCCCCCC(=O)OCCOC[C@@H](OCCO)[C@H]1OC[C@@H](OCCO)[C@@H]1OCCO
Carcinogen: 7,12-DIMETHYLBENZ(A)ANTHRACENE, Doses [Carcinogen]: TOP, Route [Carcinogen]: DERMAL, Route [Promoter]: DERMAL, Species: MOUSE, Strain/Sex: MALE
  outcome: integumentary system (skin)

## COC(=O)[C@H]1[C@@H](OC(=O)c2ccccc2)C[C@@H]2CC[C@H]1N2C
Carcinogen: MURINE SARCOMA VIRUS, Doses [Promoter]: 0, 0.5 MG/KG/D FOR 3 D BEGINNING ON DAY OF VIRUS INJECTION (STUDY DURATION: 20 D), Route [Carcinogen]: INTRAMUSCULAR, Route [Promoter]: SUBCUTANEOUS, Species: MOUSE, Strain/Sex: BALB/FEMALE
  outcome: injection site: tumor
